Patent publication US9458198B1, “Cyclic peptide-based NPR-B agonists” (priority 2009, dated 2016)
pEC50: −log10 of the molar value. Where two headings read alike, the source gives them in different places. Where a SMILES comes first, the peptide text is derived from it. Bridges are numbered along the chain shown (N, C = ends).

Target: T1, NPR-B (Homo sapiens, UniProt P20594)
T1 construct: a functional assay using endogenously NPR-B expressing GTM-3 cells; endogenous in cells; host or cells: GTM-3 (transformed human trabecular meshwork cells)
T1 sequence (P20594 23-1047): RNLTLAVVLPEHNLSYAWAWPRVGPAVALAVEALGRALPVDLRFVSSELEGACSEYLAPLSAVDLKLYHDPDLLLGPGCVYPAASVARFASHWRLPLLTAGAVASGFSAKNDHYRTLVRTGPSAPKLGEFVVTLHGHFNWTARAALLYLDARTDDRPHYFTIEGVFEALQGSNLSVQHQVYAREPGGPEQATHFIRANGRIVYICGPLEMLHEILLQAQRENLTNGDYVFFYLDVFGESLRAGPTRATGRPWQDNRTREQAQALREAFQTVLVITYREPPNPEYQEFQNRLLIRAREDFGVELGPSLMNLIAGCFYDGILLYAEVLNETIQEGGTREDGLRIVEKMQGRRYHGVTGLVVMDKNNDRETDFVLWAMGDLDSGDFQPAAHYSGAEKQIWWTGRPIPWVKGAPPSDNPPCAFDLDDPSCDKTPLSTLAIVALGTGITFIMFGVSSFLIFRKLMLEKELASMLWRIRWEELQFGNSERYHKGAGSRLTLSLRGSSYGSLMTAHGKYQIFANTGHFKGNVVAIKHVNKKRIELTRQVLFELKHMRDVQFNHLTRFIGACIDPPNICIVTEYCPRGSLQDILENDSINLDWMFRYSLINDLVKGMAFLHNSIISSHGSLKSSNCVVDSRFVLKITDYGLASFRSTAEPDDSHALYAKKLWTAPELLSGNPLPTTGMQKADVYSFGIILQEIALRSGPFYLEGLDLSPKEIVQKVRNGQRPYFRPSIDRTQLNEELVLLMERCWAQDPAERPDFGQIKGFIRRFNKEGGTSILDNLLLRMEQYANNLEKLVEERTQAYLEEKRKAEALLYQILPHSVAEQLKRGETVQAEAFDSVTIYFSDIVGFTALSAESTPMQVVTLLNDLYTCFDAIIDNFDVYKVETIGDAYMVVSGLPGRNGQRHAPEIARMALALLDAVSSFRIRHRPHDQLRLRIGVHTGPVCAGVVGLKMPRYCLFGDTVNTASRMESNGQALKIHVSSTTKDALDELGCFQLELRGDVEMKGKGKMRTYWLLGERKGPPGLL
Assay: NPR-B induced production of cyclic GMP in GTM-3 cells
Format: cell-based
Conditions: GTM-3 cells, group needs both EC50 and Emax criteria, checked A then B then C
Protocol: The efficacy and potency of compounds to activate NPR-B were evaluated in a functional assay using endogenously NPR-B expressing GTM-3 cells (Pang et al. 1994, Curr Eye Res 13:51-63). In this assay the dose dependent production of cyclic GMP (cGMP) is determined and Emax (maximum activation) and EC50 values are calculated.
The cell culture medium is aspirated and each well is washed with 200 μl DMEM/Ham's F12=Medium (Gibco). Then, 200 μl Medium supplemented with 1 mM IBMX (3-Isobutyl-1-methyl-xanthin, Sigma) is added to each well and incubated for 15 min. at room temperature.
Final compound concentrations are in the range from 45 μM to 20 nM.

[1] = read-out: Activity (group): NPR-B activation, EC50 and Emax (CNP = 100%)

| Structure (SMILES) | pEC50 [1] | pEC50 (Activity (group): NPR-B activation, EC50 and Emax (CNP = 100%)) |
| --- | --- | --- |
| CC[C@H](C)[C@@H]1NC(=O)[C@H](CCCNC(=N)N)NC(=O)[C@H](CC(=O)O)NC(=O)[C@H](CC(C)C)NC(=O)[C@H](CCCCN)NC(=O)[C@H](CC(C)C)NC(=O)CNC(=O)[C@H](Cc2ccccc2)NC(=O)[C@H](Cc2c[nH]cn2)NC(=O)[C@@H](NC(=O)[C@@H](N)CCSC)CSSC[C@@H](C(=O)N[C@@H](Cc2ccc(O)cc2)C(=O)N[C@@H](CCCNC(=N)N)C(N)=O)NC(=O)[C@H](CO)NC1=O [compound 5] (H-MCHFGLKLDRISCYR-NH2; disulfide 2-13) | > 5.30 |  |
| CC[C@H](C)[C@@H]1NC(=O)[C@H](CCCNC(=N)N)NC(=O)[C@H](CC(=O)O)NC(=O)[C@H](CC(C)C)NC(=O)[C@H](CCCCN)NC(=O)[C@H](CC(C)C)NC(=O)CNC(=O)[C@H](Cc2ccccc2)NC(=O)[C@H](Cc2c[nH]cn2)NC(=O)[C@@H](NC(=O)[C@@H](N)CCSC)CSSC[C@@H](C(=O)N[C@@H](Cc2ccc(O)cc2)C(N)=O)NC(=O)[C@H](CO)NC1=O [compound 6] (H-MCHFGLKLDRISCY-NH2; disulfide 2-13) | > 5.30 |  |
| CC[C@H](C)[C@@H]1NC(=O)[C@H](CCCNC(=N)N)NC(=O)[C@H](CC(=O)O)NC(=O)[C@H](CC(C)C)NC(=O)[C@H](CCCCN)NC(=O)[C@H](CC(C)C)NC(=O)CNC(=O)[C@H](Cc2ccccc2)NC(=O)[C@H](Cc2c[nH]cn2)NC(=O)[C@@H](NC(=O)[C@@H](N)CCSC)CSSC[C@@H](C(N)=O)NC(=O)[C@H](CO)NC1=O [compound 7] | > 5.30 |  |
| CC[C@H](C)[C@@H]1NC(=O)[C@H](CCCNC(=N)N)NC(=O)[C@H](CC(=O)O)NC(=O)[C@H](CC(C)C)NC(=O)[C@H](CCCCN)NC(=O)[C@H](CC(C)C)NC(=O)CNC(=O)[C@H](Cc2ccccc2)NC(=O)[C@H](C)NC(=O)[C@@H](NC(=O)[C@@H](N)CCSC)CSSC[C@@H](C(N)=O)NC(=O)[C@H](CO)NC1=O [compound 8] | > 5.30 |  |
| CC[C@H](C)[C@@H]1NC(=O)[C@H](CCCNC(=N)N)NC(=O)[C@H](CC(=O)O)NC(=O)[C@H](CC(C)C)NC(=O)[C@H](CCCCN)NC(=O)[C@H](C)NC(=O)CNC(=O)[C@H](Cc2ccccc2)NC(=O)[C@H](Cc2c[nH]cn2)NC(=O)[C@@H](NC(=O)[C@@H](N)CCSC)CSSC[C@@H](C(N)=O)NC(=O)[C@H](CO)NC1=O [compound 9] (H-MCHFGAKLDRISC-NH2; disulfide 2-13) | > 4.82 |  |
| CC[C@H](C)[C@@H]1NC(=O)[C@H](CCCNC(=N)N)NC(=O)[C@H](CC(=O)O)NC(=O)[C@H](CC(C)C)NC(=O)[C@H](CCCCN)NC(=O)[C@H](CC(C)C)NC(=O)CNC(=O)[C@H](Cc2ccccc2)NC(=O)[C@H](Cc2c[nH]cn2)NC(=O)[C@@H](NC(=O)[C@H](N)CCSC)CSSC[C@@H](C(N)=O)NC(=O)[C@H](CO)NC1=O [compound 10] | > 5.30 |  |
| CC[C@H](C)[C@@H]1NC(=O)[C@H](CCCNC(=N)N)NC(=O)[C@H](CC(=O)O)NC(=O)[C@H](CC(C)C)NC(=O)[C@H](CCCCN)NC(=O)[C@H](CC(C)C)NC(=O)CNC(=O)[C@H](Cc2ccccc2)NC(=O)[C@H](Cc2c[nH]cn2)NC(=O)[C@H](NC(=O)[C@@H](N)CCSC)CSSC[C@@H](C(N)=O)NC(=O)[C@H](CO)NC1=O [compound 11] | > 4.82 |  |
| CC[C@H](C)[C@@H]1NC(=O)[C@H](CCCNC(=N)N)NC(=O)[C@H](CC(=O)O)NC(=O)[C@H](CC(C)C)NC(=O)[C@H](CCCCN)NC(=O)[C@H](CC(C)C)NC(=O)CNC(=O)[C@H](Cc2ccccc2)NC(=O)[C@@H](Cc2c[nH]cn2)NC(=O)[C@@H](NC(=O)[C@@H](N)CCSC)CSSC[C@@H](C(N)=O)NC(=O)[C@H](CO)NC1=O [compound 12] | > 5.30 |  |
| CC[C@H](C)[C@@H]1NC(=O)[C@H](CCCNC(=N)N)NC(=O)[C@H](CC(=O)O)NC(=O)[C@H](CC(C)C)NC(=O)[C@H](CCCCN)NC(=O)[C@H](CC(C)C)NC(=O)CNC(=O)[C@H](Cc2ccccc2)NC(=O)[C@H](Cc2c[nH]cn2)NC(=O)[C@H](NC(=O)[C@@H](N)CCSC)CSSC[C@H](C(N)=O)NC(=O)[C@H](CO)NC1=O [compound 13] | > 4.82 |  |
| CC[C@H](C)[C@@H]1NC(=O)[C@H](CCCNC(=N)N)NC(=O)[C@H](CC(=O)O)NC(=O)[C@H](CC(C)C)NC(=O)[C@H](CCCCN)NC(=O)[C@H](CC(C)C)NC(=O)CNC(=O)[C@H](Cc2ccccc2)NC(=O)[C@H](Cc2c[nH]cn2)NC(=O)[C@@H](NC(=O)[C@@H](N)CCSC)CSSC[C@@H](C(=O)O)NC(=O)[C@H](CO)NC1=O [compound 15] | > 4.82 |  |
| CCCC[C@H](N)C(=O)N[C@H]1CSSC[C@@H](C(N)=O)NC(=O)[C@H](CO)NC(=O)[C@H]([C@@H](C)CC)NC(=O)[C@H](CCCNC(=N)N)NC(=O)[C@H](CC(=O)O)NC(=O)[C@H](CC(C)C)NC(=O)[C@H](CCCCN)NC(=O)[C@H](CC(C)C)NC(=O)CNC(=O)[C@H](Cc2ccccc2)NC(=O)[C@H](Cc2c[nH]cn2)NC1=O [compound 16] | > 4.82 |  |
| CC[C@H](C)[C@@H]1NC(=O)[C@H](CCCNC(=N)N)NC(=O)[C@H](CC(=O)O)NC(=O)[C@H](CC(C)C)NC(=O)[C@H](CCCCN)NC(=O)[C@H](CC(C)C)NC(=O)CNC(=O)[C@H](Cc2ccccc2)NC(=O)CNC(=O)[C@@H](NC(=O)[C@@H](N)CCSC)CSSC[C@@H](C(N)=O)NC(=O)[C@H](CO)NC1=O [compound 17] | > 5.30 |  |
| CC[C@H](C)[C@@H]1NC(=O)[C@H](CCCNC(=N)N)NC(=O)[C@H](CC(=O)O)NC(=O)[C@H](CC(C)C)NC(=O)[C@H](CCCCN)NC(=O)[C@H](CC(C)C)NC(=O)CNC(=O)[C@H](Cc2ccccc2)NC(=O)[C@H](CO)NC(=O)[C@@H](NC(=O)[C@@H](N)CCSC)CSSC[C@@H](C(N)=O)NC(=O)[C@H](CO)NC1=O [compound 18] | > 5.30 |  |
| CC[C@H](C)[C@@H]1NC(=O)[C@H](CCCNC(=N)N)NC(=O)[C@H](CC(=O)O)NC(=O)[C@H](CC(C)C)NC(=O)[C@H](CCCCN)NC(=O)[C@H](CC(=O)O)NC(=O)CNC(=O)[C@H](Cc2ccccc2)NC(=O)[C@H](Cc2c[nH]cn2)NC(=O)[C@@H](NC(=O)[C@@H](N)CCSC)CSSC[C@@H](C(N)=O)NC(=O)[C@H](CO)NC1=O [compound 19] (H-MCHFGDKLDRISC-NH2; disulfide 2-13) | > 5.30 |  |
| CC[C@H](C)[C@@H]1NC(=O)[C@H](CCCNC(=N)N)NC(=O)[C@H](CC(=O)O)NC(=O)[C@H](CC(C)C)NC(=O)[C@H](CCCCN)NC(=O)[C@H](Cc2c[nH]cn2)NC(=O)CNC(=O)[C@H](Cc2ccccc2)NC(=O)[C@H](Cc2c[nH]cn2)NC(=O)[C@@H](NC(=O)[C@@H](N)CCSC)CSSC[C@@H](C(N)=O)NC(=O)[C@H](CO)NC1=O [compound 20] (H-MCHFGHKLDRISC-NH2; disulfide 2-13) |  | > 5.30 |
| CC[C@H](C)[C@@H]1NC(=O)[C@H](CCCNC(=N)N)NC(=O)[C@H](CC(=O)O)NC(=O)[C@H](CC(C)C)NC(=O)[C@H](CCCCN)NC(=O)[C@H](CC(C)C)NC(=O)CNC(=O)[C@H](Cc2ccccc2)NC(=O)[C@H](Cc2c[nH]cn2)NC(=O)[C@@H](NC(=O)[C@@H](N)CCSC)CSSC[C@@H](C(=O)N[C@@H](Cc2c[nH]c3ccccc23)C(=O)N[C@@H](CCCNC(=N)N)C(N)=O)NC(=O)[C@H](CO)NC1=O [compound 21] (H-MCHFGLKLDRISCWR-NH2; disulfide 2-13) | > 4.82 |  |
| CC[C@H](C)[C@@H]1NC(=O)[C@H](CCCNC(=N)N)NC(=O)[C@H](CC(=O)O)NC(=O)[C@H](CC(C)C)NC(=O)[C@H](CCCCN)NC(=O)[C@H](CC(C)C)NC(=O)CNC(=O)[C@H](Cc2ccccc2)NC(=O)[C@H](Cc2c[nH]cn2)NC(=O)[C@@H](NC(=O)[C@@H](N)CCSC)CSSC[C@@H](C(=O)N[C@@H](CC(N)=O)C(=O)N[C@@H](CCCNC(=N)N)C(N)=O)NC(=O)[C@H](CO)NC1=O [compound 22] (H-MCHFGLKLDRISCNR-NH2; disulfide 2-13) | > 5.30 |  |
